Laboratory results: patent US12534706B2, “Method for maturation of retinal tissue containing continuous epithelium” (RIKEN, priority 2017, dated 2026)

What was measured:
[1] = system: cell aggregate containing a retinal tissue (CRX::Venus knock-in human ES cells); assay: Continuous epithelium rate of retinal tissue after adding a substance to the medium of culture method [B] (day 38 to 56); type: cell-based; conditions: day 38 to day 54, 55 or 56
Experimental: A cell aggregate containing a retinal tissue was prepared by the method described in “Kuwahara et al. Nat Commun 2015, 19(6), 6286” after modification in part. That is, the aforementioned cultured ES cells were individually dispersed using TrypLE Express (Invitrogen), and the individually dispersed human ES cells were suspended in 100 μL of a serum-free medium in a cell non-adhesive 96 well culture plate (SUMILON spheroid plate, SUMITOMO BAKELITE CO., LTD.) at 9×10^3 cells per well to allow rapid formation of aggregates, after which they were cultured at 37° C., 5% CO2. As the serum-free medium therefor, a serum-free medium obtained by adding 10% KSR, 450 μM 1-monothioglycerol, 1× Chemically defined lipid concentrate, 5 mg/mL BSA, 20 μM Y27632 to a 1:1 mixture of F-12 medium and IMDM medium was used. At 6 days after the start of suspension culture, BMP4 at a final concentration of 1.5 nM was added and suspension culture was continued. A half amount of the culture medium in the well was exchanged with the above-mentioned medium not supplemented with a BMP signal transduction pathway agonist every 3 or 4 days. A cell aggregate containing a retinal tissue at day 18 from the start of suspension culture was cultured in suspension in a serum-free medium containing 3 μM CHIR99021 and 5 μM SU5402 (DMEM/F12 medium supplemented with 1% N2 supplement) for 4 days, namely, until day 22 from the start of suspension culture. Thereafter, suspension culture was continued using the serum-containing medium. The serum-containing medium used then and the culture method are shown in the following [A] to [C]. The suspension culture of the cell aggregate containing the retinal tissue was continued until it was appropriately used for analysis and the like. • [A] From day 22 to day 56 from the start of suspension culture, suspension culture was performed using a medium obtained by adding 10% bovine calf serum, 1% N2 supplement, and 100 μM taurine to the DMEM/F12 medium. • [B] From day 22 to day 38 from the start of suspension culture, suspension culture was performed using a medium obtained by adding 10% bovine calf serum, 1% N2 supplement, and 100 μM taurine to the DMEM/F12 medium; and from day 38 to day 56 from the start of suspension culture, suspension culture was performed using a 1:3 mixed medium of a medium obtained by adding 10% bovine calf serum, 1% N2 supplement, and 100 μM taurine to the DMEM/F12 medium and a medium obtained by adding 10% bovine calf serum, 2% B27 supplement, and 100 μM taurine to the Neurobasal medium. • [C] From day 22 to day 56 from the start of suspension culture, suspension culture was performed using a medium obtained by adding 10% bovine calf serum, 2% B27 supplement, and 100 μM taurine to the Neurobasal medium (manufactured by Thermo Scientific, 21103049).
Thus, among the substances contained in the medium used in the culture method [B] from day 38 to day 56 from the start of suspension culture in the culturing method [B], a substance that may greatly affect cell differentiation, cell protection, and cell death of retinal tissues was added to the medium used in the culture method [A], and whether it contributes to the improvement of continuous epithelium rate was studied. […]

[2] = system: cell aggregate containing a retinal tissue (CRX::Venus knock-in human ES cells); assay: Continuous epithelium rate of retinal tissue after adding a substance to the medium of culture method [A]; type: cell-based; conditions: day 38 to day 54, 55 or 56
Experimental: A cell aggregate containing a retinal tissue was prepared by the method described in “Kuwahara et al. Nat Commun 2015, 19(6), 6286” after modification in part. That is, the aforementioned cultured ES cells were individually dispersed using TrypLE Express (Invitrogen), and the individually dispersed human ES cells were suspended in 100 μL of a serum-free medium in a cell non-adhesive 96 well culture plate (SUMILON spheroid plate, SUMITOMO BAKELITE CO., LTD.) at 9×10^3 cells per well to allow rapid formation of aggregates, after which they were cultured at 37° C., 5% CO2. As the serum-free medium therefor, a serum-free medium obtained by adding 10% KSR, 450 μM 1-monothioglycerol, 1× Chemically defined lipid concentrate, 5 mg/mL BSA, 20 μM Y27632 to a 1:1 mixture of F-12 medium and IMDM medium was used. At 6 days after the start of suspension culture, BMP4 at a final concentration of 1.5 nM was added and suspension culture was continued. A half amount of the culture medium in the well was exchanged with the above-mentioned medium not supplemented with a BMP signal transduction pathway agonist every 3 or 4 days. A cell aggregate containing a retinal tissue at day 18 from the start of suspension culture was cultured in suspension in a serum-free medium containing 3 μM CHIR99021 and 5 μM SU5402 (DMEM/F12 medium supplemented with 1% N2 supplement) for 4 days, namely, until day 22 from the start of suspension culture. Thereafter, suspension culture was continued using the serum-containing medium. The serum-containing medium used then and the culture method are shown in the following [A] to [C]. The suspension culture of the cell aggregate containing the retinal tissue was continued until it was appropriately used for analysis and the like. • [A] From day 22 to day 56 from the start of suspension culture, suspension culture was performed using a medium obtained by adding 10% bovine calf serum, 1% N2 supplement, and 100 μM taurine to the DMEM/F12 medium. • [B] From day 22 to day 38 from the start of suspension culture, suspension culture was performed using a medium obtained by adding 10% bovine calf serum, 1% N2 supplement, and 100 μM taurine to the DMEM/F12 medium; and from day 38 to day 56 from the start of suspension culture, suspension culture was performed using a 1:3 mixed medium of a medium obtained by adding 10% bovine calf serum, 1% N2 supplement, and 100 μM taurine to the DMEM/F12 medium and a medium obtained by adding 10% bovine calf serum, 2% B27 supplement, and 100 μM taurine to the Neurobasal medium. • [C] […]

N[C@@H](CC(=O)O)C(=O)O [L-aspartic acid]
continuous epithelium rate ([1]; L-aspartic acid alone, final concentration 50 μM in culture method [B] medium): decreased the continuous epithelium rate slightly, but the difference was not significant

N[C@@H](CCC(=O)O)C(=O)O [L-glutamic acid]
continuous epithelium rate ([1]; L-glutamic acid alone, final concentration 50 μM in culture method [B] medium): contributed to the decrease

C[C@]12C[C@H](O)[C@H]3[C@@H](CCC4=CC(=O)CC[C@@]43C)[C@@H]1CC[C@@H]2C(=O)CO [corticosterone, reference compound]
continuous epithelium rate ([2]; final concentration 100 nM added to culture method [A] medium, vs nothing added (corticosterone)): increased

N[C@@H](CS)C(=O)O [cysteine]
continuous epithelium rate ([2]; final concentration 0.22 mM in culture method [A] medium, vs nothing added): decreased

O=c1[nH]cnc2nc[nH]c12 [hypoxanthine]
continuous epithelium rate ([1]; final concentration 15 μM in culture method [B] medium): contributed to a decrease

CSCC[C@H](N)C(=O)O [methionine]
continuous epithelium rate ([2]; final concentration 26.81 mg/L in culture method [A] medium, vs nothing added): increased

CC(=O)[C@H]1CC[C@H]2[C@@H]3CCC4=CC(=O)CC[C@]4(C)[C@H]3CC[C@]12C [progesterone, reference compound]
continuous epithelium rate ([2]; final concentration 100 nM added to culture method [A] medium, vs nothing added (progesterone)): similarly decreased

Cc1cn([C@H]2C[C@H](O)[C@@H](CO)O2)c(=O)[nH]c1=O [thymidine]
continuous epithelium rate ([1]; final concentration 1.5 μM in culture method [B] medium): contributed to a decrease

vitamin B12
continuous epithelium rate ([1]; final concentration 0.68 mg/L in culture method [B] medium): contributed to a decrease
